Data from article PMC5897774, “Mitotic spindle association of TACC3 requires Aurora‐A‐dependent stabilization of a cryptic α‐helix” (The EMBO Journal, 2018).
Residues, ends and D or L forms follow the SMILES beside them.

Experiments:
CHC 1–574 = target: T1, CHC 1–574 (Homo sapiens, UniProt Q00610); test: FP binding assay, CHC 1–574; details: 50 nM FAM peptide, pH 7.5, 25°C, mutant vs WT phospho-TACC3^CID
T1 construct: GST (cleaved yes); made in house
Description: For CHC‐TACC3 FP assays, CHC proteins were serially diluted in FP buffer (20 mM HEPES–NaOH pH 7.5, 200 mM NaCl, 5 mM DTT). FAM‐labelled TACC3 peptide was added to a final concentration of 50 nM and incubated for 30 min at room temperature to allow binding to reach equilibrium. Fluorescence polarization measurements were made using a Victor X5 plate reader (Perkin Elmer) at 25°C with excitation at 490 nm and emission at 535 nm. Data analysis was performed as described above.

Aurora‐A = details: whether T288 is phosphorylated or not, ref Bayliss et al, 2003, Eyers et al, Dodson & Bayliss, 2012; cited from earlier work
Text: The activity of Aurora‐A is controlled through phosphorylation of its activation loop on T288 (Bayliss et al, 2003; Eyers et al, 2003). Like many of its other binding partners, such as TPX2, I‐2, HEF1, and N‐Myc, TACC3 is an Aurora‐A activator (Nikonova et al, 2013; Richards et al, 2016). However, only in the case of TPX2 has the mechanism of activation, and how this synergizes with phosphorylation of T288, been resolved (Bayliss et al, 2003; Eyers et al, 2003; Dodson & Bayliss, 2012).

T1 sequence (Q00610 1-574): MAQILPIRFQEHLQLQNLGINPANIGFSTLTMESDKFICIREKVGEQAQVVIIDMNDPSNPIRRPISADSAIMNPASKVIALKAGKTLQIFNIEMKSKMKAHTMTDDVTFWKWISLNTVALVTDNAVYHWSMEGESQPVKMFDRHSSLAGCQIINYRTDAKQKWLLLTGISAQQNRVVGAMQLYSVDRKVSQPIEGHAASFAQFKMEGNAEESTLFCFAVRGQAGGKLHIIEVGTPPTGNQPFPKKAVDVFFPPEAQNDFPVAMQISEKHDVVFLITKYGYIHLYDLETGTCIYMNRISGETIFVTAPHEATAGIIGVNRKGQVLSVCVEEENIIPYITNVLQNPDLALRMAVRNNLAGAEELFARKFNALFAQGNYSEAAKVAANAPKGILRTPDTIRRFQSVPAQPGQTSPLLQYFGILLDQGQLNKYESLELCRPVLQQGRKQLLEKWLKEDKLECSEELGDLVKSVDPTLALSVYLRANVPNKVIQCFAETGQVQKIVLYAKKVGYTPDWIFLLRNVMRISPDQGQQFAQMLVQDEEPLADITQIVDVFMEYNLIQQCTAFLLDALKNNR

Compound	factor of reduction of affinity for CHC 1–574 (CHC 1–574)	stimulation of Aurora‐A activity (Aurora‐A)
CC(C)C[C@H](NC(=O)[C@H](C)NC(=O)[C@H](CO)NC(=O)[C@H](CCC(=O)O)NC(=O)[C@H](CCCCN)NC(=O)[C@H](Cc1ccccc1)NC(=O)c1ccc2c(c1)C(=O)OC21c2ccc(O)cc2Oc2cc(O)ccc21)C(=O)N[C@@H](C)C(=O)N[C@@H](C)C(=O)N[C@@H](CCC(N)=O)C(=O)N[C@@H](COP(=O)(O)O)C(=O)N[C@@H](CC(C)C)C(=O)N[C@@H](Cc1ccc(O)cc1)C(=O)N[C@@H](CC(C)C)C(=O)N[C@@H](CCCCN)C(=O)N[C@@H](Cc1ccccc1)C(=O)N[C@@H](CC(=O)O)C(=O)N1CCC[C@H]1C(=O)N[C@@H](CC(C)C)C(=O)N[C@@H](CC(C)C)C(=O)N[C@@H](CCCNC(=N)N)C(=O)N[C@@H](CC(=O)O)C(=O)N[C@@H](CO)C(=O)O [R555A, K556A] (HELM PEPTIDE1{[O=C1OC2(c3ccc(O)cc3Oc3cc(O)ccc32)c2ccc(C(=O)[*:2])cc21].F.K.E.S.A.L.A.A.Q.[O=C([C@H](COP(=O)(O)O)N[*:1])[*:2]].L.Y.L.K.F.D.P.L.L.R.D.S}$$$$V2.0; N-terminus and C-terminus assumed)	4–5 factor	–
TPX2 1–43: amino acids 1–43 of TPX2 (MSQVKSSYSYDAPSDFINFSSLDDEGDTQNIDSWFEEKANLEN; UniProt Q9ULW0 1-43, looked up, fragment)	–	stimulate Aurora‐A activity
